According to ChEMBL document CHEMBL5380864, “Novel Synthesis of C-Methylated Phytocannabinoids Bearing Anti-inflammatory Properties” (J Med Chem, 2023):
The source made the active and inactive calls. The rule behind the calls is not given here.

Assays:
[1] = tested on: Mus musculus; experiment: Anti-inflammatory activity against zymosan A-induced Sabra mouse model assessed as reduction in […] at 5 to 25 mg/kg, ip measured after 6 hrs; assay type: functional, organism-based; details: dose 5-25 mg/kg
[2] = tested on: Mus musculus; experiment: Anti-inflammatory activity against zymosan A-induced Sabra mouse model assessed as reduction in TNF-alpha level administered intraperitoneally and measured after 24 hrs by ELISA analysis; assay type: functional, organism-based; details: route ip
[3] = tested on: Mus musculus; experiment: Anti-inflammatory activity against zymosan A-induced Sabra mouse model assessed as reduction in paw swelling at 5 to 25 mg/kg, ip measured after 6 hrs; assay type: functional, organism-based; details: dose 5-25 mg/kg
[4] = tested on: Mus musculus; experiment: Anti-inflammatory activity against zymosan A-induced Sabra mouse model assessed as reduction in TNF-alpha level at 5 to 50 mg/kg, ip measured after 24 hrs by ELSA analysis; assay type: functional, organism-based; details: dose 5-50 mg/kg
[5] = tested on: Mus musculus; experiment: Anti-inflammatory activity against zymosan A-induced Sabra mouse model assessed as reduction in paw swelling at 5 to 50 mg/kg, ip measured after 6 hrs; assay type: functional, organism-based; details: dose 5-50 mg/kg
[6] = tested on: Mus musculus; experiment: Anti-inflammatory activity against zymosan A-induced Sabra mouse model assessed as reduction in pain sensation at 5 to 50 mg/kg, ip measured after 6 hrs; assay type: functional, organism-based; details: dose 5-50 mg/kg
[7] = tested on: Mus musculus; experiment: Anti-inflammatory activity against zymosan A-induced Sabra mouse model assessed as reduction in paw swelling at 10 to 25 mg/kg, ip measured after 6 hrs; assay type: functional, organism-based; details: dose 10-25 mg/kg
[8] = tested on: Mus musculus; experiment: Anti-inflammatory activity against zymosan A-induced Sabra mouse model assessed as reduction in pain sensation at 10 to 25 mg/kg, ip measured after 6 hrs; assay type: functional, organism-based; details: dose 10-25 mg/kg
[9] = tested on: Mus musculus; experiment: Anti- inflammatory activity against C57BL/6 mouse model of LPS-induced peritonitis assessed as reduction in plasma TNF alpha level at 10 mg/kg, ip pre-administered for 60 mins followed by LPS-stimulation and measured after 90 mins by ELISA analysis; assay type: functional, organism-based; details: time 150.0 min
[10] = tested on: Mus musculus; experiment: Anti- inflammatory activity against C57BL/6 mouse model of LPS-induced peritonitis assessed as reduction in plasma IL-1beta level at 10 mg/kg, ip pre-administered for 60 mins followed by LPS-stimulation and measured after 90 mins by ELISA analysis; assay type: functional, organism-based; details: time 150.0 min
[11] = tested on: Mus musculus; experiment: Anti- inflammatory activity against C57BL/6 mouse model of LPS-induced peritonitis assessed as reduction in plasma IL-6 level at 10 mg/kg, ip pre-administered for 60 mins followed by LPS-stimulation and measured after 90 mins by ELISA analysis; assay type: functional, organism-based; details: time 150.0 min
[12] = tested on: Mus musculus; experiment: Anti-inflammatory activity against zymosan A-induced Sabra mouse model assessed as reduction in TNF-alpha level at 10 to 25 mg/kg, ip measured after 24 hrs by ELISA analysis; assay type: functional, organism-based; details: dose 10-25 mg/kg
[13] = tested on: Mus musculus; experiment: Anti- inflammatory activity against C57BL/6 mouse model of LPS-induced peritonitis assessed as reduction in plasma IL-6 level at 5 mg/kg, ip pre-administered for 60 mins followed by LPS-stimulation and measured after 90 mins by ELISA analysis; assay type: functional, organism-based; details: time 150.0 min
[14] = tested on: BMDM; experiment: Inhibition of IL-1beta protein expression in LPS-stimulated human bone-marrow derived macrophage cells at 5 uM preincubated with compound for 3 hrs followed by LPS stimulation for 3 hrs and measured 30 mins after ATP addition by ELISA analysis; assay type: functional, cell-based; details: time 6.5 hrs
[15] = tested on: Mus musculus; experiment: Anti- inflammatory activity against C57BL/6 mouse model of LPS-induced peritonitis assessed as reduction in plasma TNF alpha level at 5 mg/kg, ip pre-administered for 60 mins followed by LPS-stimulation and measured after 90 mins by ELISA analysis; assay type: functional, organism-based; details: time 150.0 min
[16] = tested on: BMDM; experiment: Inhibition of IL-1beta mRNA expression in LPS-stimulated human bone-marrow derived macrophage cells at 5 uM preincubated with compound for 3 hrs followed by LPS stimulation for 3 hrs and measured 30 mins after ATP addition by qRT-PCR analysis; assay type: functional, cell-based; details: time 6.5 hrs
[17] = tested on: Mus musculus; experiment: Anti- inflammatory activity against C57BL/6 mouse model of LPS-induced peritonitis assessed as reduction in plasma IL-1beta level at 5 mg/kg, ip pre-administered for 60 mins followed by LPS-stimulation and measured after 90 mins by ELISA analysis; assay type: functional, organism-based; details: time 150.0 min
[18] = tested on: Mus musculus; experiment: Anti-inflammatory activity against zymosan A-induced Sabra mouse model assessed as reduction in TNF-alpha level at 5 to 25 mg/kg, ip measured after 24 hrs by ELISA analysis; assay type: functional, organism-based; details: dose 5-25 mg/kg
[19] = tested on: Mus musculus; experiment: Anti-inflammatory activity against zymosan A-induced Sabra mouse model assessed as reduction in pain sensation administered intraperitoneally and measured after 6 hrs; assay type: functional, organism-based; details: dose 5-50 mg/kg, route ip

## C=C(C)[C@@H]1CCC(C)=C[C@H]1c1c(O)cc(O)c(C)c1CCCCC
[1]
  Activity: Active
[2]
  Activity: Dose-Dependent Effect
[3]
  Activity: Active

## C=C(C)[C@@H]1CCC(C)=C[C@H]1c1c(O)cc(CCCCC)c(C)c1O
[4]
  Activity: Active
[5]
  Activity: Active
[6]
  Activity: Active

## C=C(C)[C@@H]1CCC(C)=C[C@H]1c1c(OC)cc(CCCCC)c(C)c1OC
[7]
  Activity: Active
[8]
  Activity: Active
[9]
  Activity: Active
[10]
  Activity: inactive
[11]
  Activity: inactive
[12]
  Activity: Active

## CCCCCc1cc(O)c([C@@H]2C=C(C)CC[C@H]2C(C)C)c(O)c1C
[7]
  Activity: Active
[8]
  Activity: Active
[13]
  Activity: inactive
[14]
  inhibition: Active
[15]
  Activity: Active
[16]
  inhibition: Active
[12]
  Activity: Active
[17]
  Activity: Active

## CCCCCc1cc(OC)c(C/C=C(\C)CCC=C(C)C)c(OC)c1C
[4]
  Activity: Active
[5]
  Activity: Active
[6]
  Activity: Active

## CCCCCc1cc(O)c(C/C=C(\C)CCC=C(C)C)c(O)c1C
[1]
  Activity: Active
[13]
  Activity: inactive
[15]
  Activity: inactive
[3]
  Activity: Active
[18]
  Activity: Active
[17]
  Activity: Active

## C=C(C)[C@@H]1CCC(C)=C[C@H]1c1c(O)c(C)c(CCCCC)c(C)c1O
[19]
  Activity: Dose-Dependent Effect
[4]
  Activity: Active
[5]
  Activity: Active
